# Experiments:
# [1] = molecular target: wt-PKR (Homo sapiens, UniProt P30613); test: Enzyme assay of PKR kinetics and activation (Example 3); assay type: biochemical; settings: PEP at or below Km
# Description: The ability of Compound 1 to activate PKR in enzyme-based assays was measured.
# Tests were conducted in the presence and absence of fructose-1,6-bisphosphate (FBP), a known allosteric activator of PKR.
# [2] = Permeability Papp (A-B); assay type: in vitro ADME; settings: not told
# [3] = Phase 1: plasma pharmacokinetics in SCD patients; assay type: in vivo; settings: human, oral, SCD (N = 5), single dose 700 mg
# Excerpt: (§1) This is a first-in-human (FIH), Phase 1 study of Compound 1 that will characterize the safety, PK, and PD of Compound 1 after a single dose and after repeated dosing first in healthy adult volunteers and then in adolescents or adults with sickle cell disease. Initially, a dose range of Compound 1 in single ascending dose (SAD) escalation cohorts will be explored in healthy subjects. Enrollment of healthy subjects into 2-week multiple ascending dose (MAD) escalation cohorts will be initiated once the safety and PK from at least two SAD cohorts is available to inform the doses for the 2-week MAD portion of the study. The MAD cohorts will then run in parallel to the single dose cohorts. A single dose cohort is planned to understand food effects (FE) on the PK of Compound 1. […] Multiple dose studies in SCD subjects will then be initiated upon completion of MAD studies in healthy volunteers. Compound 1 will be administered in 25 mg and 100 mg tablets delivered orally, prepared as described in Example 1, Step 7.
# (§2) In this study, SAD/MAD cohorts are randomized (3 to 1) to receive Compound 1 or placebo (P). Compound 1 was evaluated first in 4 healthy SAD cohorts and 4 healthy MAD (14-day dosing period) cohorts. Based on the safety, and PK/PD profile from HS, Compound 1 is then evaluated in 1 SCD SAD cohort and 2 SCD MAD cohorts. Specifically, based on the safety and pharmacokinetic/pharmacodynamics (PK/PD) profile in healthy volunteer studies, Compound 1 is evaluated in patients (pts) with SCD, first in a single dose (SD or SAD) cohort and then in multiple-dose (MD or MAD) cohorts (14-day and 12-week). Safety assessments include AEs, vital signs, ECGs and laboratory parameters. PK/PD blood sampling was performed on Day 1 (SAD/MAD) and Day 14 (MAD) and up to 72 h after the last dose and at the end-of-study visit. PD parameters included 2,3-DPG, ATP, and p50 in all cohorts with additional PD studies (including oxygen scan) performed only in the SCD cohorts. PD parameters included 2,3-DPG, ATP, p50, RBC deformability with controlled deoxygenation and reoxygenation (Lorrca® oxygen scan) and varying osmolality (Lorrca® osmoscan)). To maintain study blind, pt identifiers were removed when needed.
# A potential exposure to the maximum PD response dose range to evaluate in patients with SCD was identified. Based on the safety and PK/PD profile in healthy volunteer studies, a 700 mg single dose was evaluated in patients with SCD (n=7). A single 700 mg dose of Compound 1 was selected to evaluate in patients with SCD to enable daily dosing cohorts at lower exposures.
# In the SCD single dose cohort, seven patients received either Compound 1 (n=5) or placebo (n=2).
# [4] = molecular target: T1, CYP2D6 (Homo sapiens, UniProt P10635); test: Single substrate DDI assay, reversible CYP inhibition in human liver microsomes; assay type: in vitro ADME
# T1 construct: from tissue; host or cells: human liver microsomes
# [5] = Phase 1 SAD/MAD/food effect: plasma pharmacokinetics in healthy volunteers; assay type: in vivo, human
# Excerpt: as §1, §2
# Primary Outcome Measures: • 1. Incidence, frequency, and severity of adverse events (AEs) per CTCAE v5.0 of a single ascending dose and multiple ascending doses of Compound 1 in adult healthy volunteers and SCD patients. Incidence of abnormal laboratory test results (clinical chemistry, endocrine hematology, urinalysis). Change from baseline in vital signs (blood pressure, respiratory rate, heart rate, and oral temperature). Incidence of treatment-emergent clinically significant abnormal findings in ECGs. • [Time Frame: Up to 3 weeks of monitoring] • 2. […] Area under the plasma concentration-time curve from time zero until the 24-hour time point (AUC0-24) • [Time Frame: Up to 3 weeks of testing] • 5. Area under the plasma concentration-time curve from time zero until last quantifiable time point (AUC0-last) • [Time Frame: Up to 3 weeks of testing] • 6. Area under the plasma concentration-time curve from time zero to infinity (AUC0-inf) • [Time Frame: Up to 3 weeks of testing] • 7. […] Apparent volume of distribution (Vd/F) • [Time Frame: Up to 3 weeks of testing] • 10. Terminal disposition rate constant (Lz) • [Time Frame: Up to 3 weeks of testing] • 11.
# Four healthy SAD cohorts were evaluated at doses of 200, 400, 700, and 1000 mg, and four healthy MAD cohorts received 200 to 600 mg total daily doses for 14 days at QD or BID dosing (100 mg BID, 200 mg BID, 300 mg BID, and 400 mg QD). In the food effect (FE) cohort, 10 healthy subjects received 400 mg of Compound 1 QD with and without food.
# [6] = human, plasma, oral, HV (N = 6), single dose 700 mg, geometric mean (geometric CV)
# Chain of wt-PKR (P30613 whole entry): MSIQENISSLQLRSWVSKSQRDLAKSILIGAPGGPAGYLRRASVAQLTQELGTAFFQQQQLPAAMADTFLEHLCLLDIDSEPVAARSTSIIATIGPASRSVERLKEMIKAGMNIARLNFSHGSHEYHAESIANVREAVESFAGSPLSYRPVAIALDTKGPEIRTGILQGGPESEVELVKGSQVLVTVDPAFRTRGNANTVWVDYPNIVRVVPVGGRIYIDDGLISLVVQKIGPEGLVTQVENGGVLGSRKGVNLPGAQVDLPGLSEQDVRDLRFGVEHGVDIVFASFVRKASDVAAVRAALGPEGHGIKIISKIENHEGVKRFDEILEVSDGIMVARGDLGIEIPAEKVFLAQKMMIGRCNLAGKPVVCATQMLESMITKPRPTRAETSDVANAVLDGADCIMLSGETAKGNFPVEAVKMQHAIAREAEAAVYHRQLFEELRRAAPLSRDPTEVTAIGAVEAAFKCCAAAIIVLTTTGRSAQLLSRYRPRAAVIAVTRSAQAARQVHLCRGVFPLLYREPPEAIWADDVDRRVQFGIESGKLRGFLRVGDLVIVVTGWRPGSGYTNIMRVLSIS
# T1 sequence (P10635 whole entry): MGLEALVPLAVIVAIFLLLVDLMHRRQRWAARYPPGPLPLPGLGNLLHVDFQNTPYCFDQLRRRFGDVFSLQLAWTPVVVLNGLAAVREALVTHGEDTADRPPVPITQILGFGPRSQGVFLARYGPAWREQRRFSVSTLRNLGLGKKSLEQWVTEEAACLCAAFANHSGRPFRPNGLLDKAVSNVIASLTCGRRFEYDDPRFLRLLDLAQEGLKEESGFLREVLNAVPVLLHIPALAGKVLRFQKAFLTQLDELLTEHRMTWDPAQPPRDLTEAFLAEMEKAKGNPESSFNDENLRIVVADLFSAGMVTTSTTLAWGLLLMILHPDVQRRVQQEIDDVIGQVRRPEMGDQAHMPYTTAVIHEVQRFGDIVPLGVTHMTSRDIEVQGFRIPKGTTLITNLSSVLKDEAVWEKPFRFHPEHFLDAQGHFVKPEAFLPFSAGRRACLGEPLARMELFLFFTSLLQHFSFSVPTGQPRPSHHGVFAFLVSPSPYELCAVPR
structure (smiles),measurement,setting,value
"O=C([C@H](CO)c1ccccc1)N1CC2=C(C1)CN(S(=O)(=O)c1cnc3c(c1)OCCO3)C2 (single isomer, unassigned) [Compound 1]",AC50,[1],< 0.1 µM
same,Papp A→B,[2],5.46 ×10⁻⁶ cm/s
same,AUC(0-inf),[3]; geometric mean (geometric CV),7300 ng·h/mL
same,Cmax,[3]; geometric mean (geometric CV),2580 ng/mL
same,half-life,[3]; geometric mean (geometric CV),14.9 h
same,Tmax,"[3]; median [min, max]",2 h
same,IC50,[4],> 30 µM
same,exposure under fed/fasted conditions,"[5]; food effect cohort, 400 mg",similar
same,PK linearity and time dependence,[5]; healthy subject studies,linear and time-independent PK
same,observed clearance on day 1 and day 14,"[5]; healthy subjects, 14 days of dosing",unchanged
same,half-life,"[5]; human, plasma, oral, 700 mg, HV (N = 6), single dose 700 mg, geometric mean (geometric CV), read-out: t1/2 (converted)",13.3 h
same,half-life,"[5]; human, plasma, oral, biphasic PK profile, read-out: terminal half-life",12 to 14 h
same,half-life,"[5]; human, plasma, oral, healthy volunteers, single doses up to 700 mg, read-out: T1/2",11 to 15 h
same,AUC(0-t),"[5]; human, plasma, oral, HS and SCD subjects similar, read-out: AUC0-24",~7000 ng·h/mL
same,half-life,"[5]; human, plasma, oral, HS and SCD subjects similar, read-out: T½",10 to 13 h
same,AUC(0-inf),[5]; [6],7000 ng·h/mL
same,Cmax,[5]; [6],2200 ng/mL
same,Tmax,"[5]; human, plasma, oral, HV (N = 6), single dose 700 mg, median [min, max]",0.5 h

# Reference: patent US20220087983A1, “ACTIVATING PYRUVATE KINASE R” (FORMA Therapeutics, Inc., priority 2020, published 2022)
